Assays:
Experiment in all cases: radiometric filter-binding kinase assay, Kinase HotSpot
Settings in all cases: compound 0.5 µM; ATP 10 µM
PKN1 (human) = PKN1 (human) (UniProt Q16512)
DYRK1B (human) = DYRK1B (human) (UniProt Q9Y463)
ACVR1 (human) = ACVR1 (human) (UniProt Q04771)
TGFBR2 (human) = TGFBR2 (human) (UniProt P37173)
STK3 (human) = STK3 (human) (UniProt Q13188)
INSR (human) = INSR (human) (UniProt P06213)
CAMK1 (human) = CAMK1 (human) (UniProt Q14012)
LCK (human) = LCK (human) (UniProt P06239)
CSK (human) = CSK (human) (UniProt P41240)
SRPK1 (human) = SRPK1 (human) (UniProt Q96SB4)
PAK2 (human) = PAK2 (human) (UniProt Q13177)
DAPK1 (human) = DAPK1 (human) (UniProt P53355)
PHKG1 (human) = PHKG1 (human) (UniProt Q16816)
CDC42BPA (human) = CDC42BPA (human) (UniProt Q5VT25)
NEK9 (human) = NEK9 (human) (UniProt Q8TD19)
MUSK (human) = MUSK (human) (UniProt O15146)
NEK6 (human) = NEK6 (human) (UniProt Q9HC98)
HIPK3 (human) = HIPK3 (human) (UniProt Q9H422)
RPS6KA2 KD1 KD2 (human) = RPS6KA2 KD1 KD2 (human) (UniProt Q15349)
CDK3 CCNE1 (human) = CDK3 CCNE1 (human) (UniProt Q00526+P24864)
MAPK11 (human) = MAPK11 (human) (UniProt Q15759)
KIT (human) = KIT (human) (UniProt P10721)
PRKG2 (human) = PRKG2 (human) (UniProt Q13237)
CHUK (human) = CHUK (human) (UniProt O15111)
Chain of CHUK (human) (O15111 whole entry, looked up): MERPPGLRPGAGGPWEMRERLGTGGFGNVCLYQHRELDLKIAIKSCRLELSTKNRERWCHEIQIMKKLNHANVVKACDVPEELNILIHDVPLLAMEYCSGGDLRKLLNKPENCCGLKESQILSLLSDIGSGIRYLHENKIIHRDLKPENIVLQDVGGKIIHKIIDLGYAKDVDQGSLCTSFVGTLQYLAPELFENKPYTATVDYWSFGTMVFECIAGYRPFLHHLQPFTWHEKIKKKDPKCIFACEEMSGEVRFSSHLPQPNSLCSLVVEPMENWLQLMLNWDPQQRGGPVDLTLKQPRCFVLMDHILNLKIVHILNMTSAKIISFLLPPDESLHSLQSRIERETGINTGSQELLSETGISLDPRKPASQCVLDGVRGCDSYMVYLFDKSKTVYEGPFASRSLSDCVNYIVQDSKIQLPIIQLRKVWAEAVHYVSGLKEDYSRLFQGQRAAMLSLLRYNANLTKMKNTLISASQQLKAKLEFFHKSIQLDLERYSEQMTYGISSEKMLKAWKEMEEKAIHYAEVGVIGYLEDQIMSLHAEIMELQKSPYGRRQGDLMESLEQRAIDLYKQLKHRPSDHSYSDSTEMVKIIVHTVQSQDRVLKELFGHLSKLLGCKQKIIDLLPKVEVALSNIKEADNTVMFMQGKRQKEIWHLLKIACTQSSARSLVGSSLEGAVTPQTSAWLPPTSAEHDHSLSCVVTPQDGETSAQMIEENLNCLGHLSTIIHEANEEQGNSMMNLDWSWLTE

EPHA8 (human) = EPHA8 (human) (UniProt P29322)
MAP4K5 (human) = MAP4K5 (human) (UniProt Q9Y4K4)
Chain of MAP4K5 (human) (Q9Y4K4 whole entry, looked up): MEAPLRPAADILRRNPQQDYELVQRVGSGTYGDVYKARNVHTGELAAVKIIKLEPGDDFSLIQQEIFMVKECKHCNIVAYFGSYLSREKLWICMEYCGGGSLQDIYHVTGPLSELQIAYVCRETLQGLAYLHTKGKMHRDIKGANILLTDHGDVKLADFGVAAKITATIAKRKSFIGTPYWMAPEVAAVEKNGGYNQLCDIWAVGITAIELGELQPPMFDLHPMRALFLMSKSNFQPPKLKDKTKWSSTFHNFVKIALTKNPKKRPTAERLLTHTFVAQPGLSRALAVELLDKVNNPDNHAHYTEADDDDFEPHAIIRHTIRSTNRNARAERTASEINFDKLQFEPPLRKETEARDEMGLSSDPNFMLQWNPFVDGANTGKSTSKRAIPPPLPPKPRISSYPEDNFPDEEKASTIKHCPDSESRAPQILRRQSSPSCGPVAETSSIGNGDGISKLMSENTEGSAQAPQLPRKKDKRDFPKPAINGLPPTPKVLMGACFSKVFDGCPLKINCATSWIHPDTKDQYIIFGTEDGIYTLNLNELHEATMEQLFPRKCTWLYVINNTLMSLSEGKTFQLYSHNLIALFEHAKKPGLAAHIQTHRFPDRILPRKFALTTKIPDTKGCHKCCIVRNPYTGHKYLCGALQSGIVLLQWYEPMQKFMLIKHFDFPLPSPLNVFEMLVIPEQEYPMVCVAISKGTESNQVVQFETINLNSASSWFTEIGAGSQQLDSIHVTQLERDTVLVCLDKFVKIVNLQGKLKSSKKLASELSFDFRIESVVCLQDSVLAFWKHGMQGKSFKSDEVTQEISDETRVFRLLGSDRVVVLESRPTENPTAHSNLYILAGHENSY

TAOK3 (human) = TAOK3 (human) (UniProt Q9H2K8)
FLT1 (human) = FLT1 (human) (UniProt P17948)
Chain of FLT1 (human) (P17948 whole entry, looked up): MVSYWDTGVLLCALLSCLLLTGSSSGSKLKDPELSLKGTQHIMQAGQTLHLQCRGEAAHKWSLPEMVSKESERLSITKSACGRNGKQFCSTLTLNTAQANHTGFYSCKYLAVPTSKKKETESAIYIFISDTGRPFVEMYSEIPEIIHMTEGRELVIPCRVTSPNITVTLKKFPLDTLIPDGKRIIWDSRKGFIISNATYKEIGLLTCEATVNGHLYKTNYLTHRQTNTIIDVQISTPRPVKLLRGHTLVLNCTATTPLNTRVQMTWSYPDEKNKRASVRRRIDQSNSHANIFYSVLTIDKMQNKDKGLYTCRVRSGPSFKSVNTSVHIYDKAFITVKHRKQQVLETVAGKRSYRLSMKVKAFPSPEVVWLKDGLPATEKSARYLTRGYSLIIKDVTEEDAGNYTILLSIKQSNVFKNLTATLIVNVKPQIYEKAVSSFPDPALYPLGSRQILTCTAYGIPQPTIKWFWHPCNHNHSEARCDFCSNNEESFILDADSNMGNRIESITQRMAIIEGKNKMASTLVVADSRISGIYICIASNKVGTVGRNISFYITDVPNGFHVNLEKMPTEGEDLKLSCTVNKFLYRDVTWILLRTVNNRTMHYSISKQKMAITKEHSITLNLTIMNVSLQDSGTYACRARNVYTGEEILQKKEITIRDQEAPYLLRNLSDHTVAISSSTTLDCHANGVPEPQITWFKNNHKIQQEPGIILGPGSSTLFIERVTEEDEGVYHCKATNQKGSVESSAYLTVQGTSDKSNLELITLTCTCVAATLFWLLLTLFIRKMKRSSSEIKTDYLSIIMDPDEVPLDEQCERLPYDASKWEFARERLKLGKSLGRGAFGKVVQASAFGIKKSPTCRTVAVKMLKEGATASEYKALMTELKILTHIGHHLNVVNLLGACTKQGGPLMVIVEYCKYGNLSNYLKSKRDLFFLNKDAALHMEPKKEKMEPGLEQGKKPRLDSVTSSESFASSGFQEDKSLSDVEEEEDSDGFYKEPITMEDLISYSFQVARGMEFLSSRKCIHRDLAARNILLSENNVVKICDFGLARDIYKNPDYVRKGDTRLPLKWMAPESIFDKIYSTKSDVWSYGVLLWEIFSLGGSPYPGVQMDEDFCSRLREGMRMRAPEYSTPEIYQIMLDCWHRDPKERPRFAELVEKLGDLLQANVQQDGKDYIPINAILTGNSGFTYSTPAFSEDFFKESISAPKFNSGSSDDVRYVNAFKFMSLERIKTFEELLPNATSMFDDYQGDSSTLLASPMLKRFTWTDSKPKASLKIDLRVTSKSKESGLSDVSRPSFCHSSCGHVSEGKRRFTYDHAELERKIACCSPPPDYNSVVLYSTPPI

RET (human) = RET (human) (UniProt P07949)
Chain of RET (human) (P07949 whole entry, looked up): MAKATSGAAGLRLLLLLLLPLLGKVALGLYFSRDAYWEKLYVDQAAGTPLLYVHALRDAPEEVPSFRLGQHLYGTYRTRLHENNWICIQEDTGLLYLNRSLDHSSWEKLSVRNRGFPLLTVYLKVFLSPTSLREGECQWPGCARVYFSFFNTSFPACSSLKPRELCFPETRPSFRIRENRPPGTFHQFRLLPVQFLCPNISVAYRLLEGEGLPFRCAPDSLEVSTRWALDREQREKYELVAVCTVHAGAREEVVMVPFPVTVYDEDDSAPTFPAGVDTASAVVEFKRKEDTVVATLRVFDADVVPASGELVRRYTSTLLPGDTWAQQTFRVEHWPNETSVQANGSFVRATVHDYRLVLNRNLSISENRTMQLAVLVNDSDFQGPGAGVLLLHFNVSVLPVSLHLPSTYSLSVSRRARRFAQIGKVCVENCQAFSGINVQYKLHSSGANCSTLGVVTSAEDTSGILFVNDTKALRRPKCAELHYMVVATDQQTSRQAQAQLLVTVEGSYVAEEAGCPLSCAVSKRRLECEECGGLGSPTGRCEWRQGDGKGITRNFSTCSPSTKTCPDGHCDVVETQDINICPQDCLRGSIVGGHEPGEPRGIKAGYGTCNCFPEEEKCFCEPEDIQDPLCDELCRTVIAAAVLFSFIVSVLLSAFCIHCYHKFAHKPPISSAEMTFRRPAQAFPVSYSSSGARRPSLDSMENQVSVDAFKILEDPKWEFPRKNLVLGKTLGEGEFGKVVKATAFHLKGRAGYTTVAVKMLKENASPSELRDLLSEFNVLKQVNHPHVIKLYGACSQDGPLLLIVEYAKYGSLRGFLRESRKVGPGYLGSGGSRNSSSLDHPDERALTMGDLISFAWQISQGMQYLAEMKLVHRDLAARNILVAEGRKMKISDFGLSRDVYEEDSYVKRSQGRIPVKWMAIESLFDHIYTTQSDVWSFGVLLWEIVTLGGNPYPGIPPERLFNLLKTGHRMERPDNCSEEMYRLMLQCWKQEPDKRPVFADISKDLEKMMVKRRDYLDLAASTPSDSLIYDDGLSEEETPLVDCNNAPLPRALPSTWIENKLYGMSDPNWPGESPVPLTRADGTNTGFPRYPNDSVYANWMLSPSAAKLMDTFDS

SRC (human) = SRC (human) (UniProt P12931)
Chain of SRC (human) (P12931 whole entry, looked up): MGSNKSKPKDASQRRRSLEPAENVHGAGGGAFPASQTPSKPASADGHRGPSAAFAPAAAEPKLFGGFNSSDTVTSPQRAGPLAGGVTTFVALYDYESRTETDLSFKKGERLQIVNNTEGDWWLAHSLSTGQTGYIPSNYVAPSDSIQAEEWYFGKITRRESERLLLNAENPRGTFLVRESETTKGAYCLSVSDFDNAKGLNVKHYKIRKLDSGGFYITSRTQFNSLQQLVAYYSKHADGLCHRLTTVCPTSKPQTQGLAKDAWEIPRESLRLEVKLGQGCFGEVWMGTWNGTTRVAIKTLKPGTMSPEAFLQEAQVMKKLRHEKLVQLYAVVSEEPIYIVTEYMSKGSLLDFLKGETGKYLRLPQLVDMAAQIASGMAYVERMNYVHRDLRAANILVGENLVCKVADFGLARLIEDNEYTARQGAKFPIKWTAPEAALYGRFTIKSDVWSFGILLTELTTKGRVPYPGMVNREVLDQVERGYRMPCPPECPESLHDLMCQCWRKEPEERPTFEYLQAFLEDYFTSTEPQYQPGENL

MAP3K8 (human) = MAP3K8 (human) (UniProt P41279)
RPS6KB1 (human) = RPS6KB1 (human) (UniProt P23443)
Chain of RPS6KB1 (human) (P23443 whole entry, looked up): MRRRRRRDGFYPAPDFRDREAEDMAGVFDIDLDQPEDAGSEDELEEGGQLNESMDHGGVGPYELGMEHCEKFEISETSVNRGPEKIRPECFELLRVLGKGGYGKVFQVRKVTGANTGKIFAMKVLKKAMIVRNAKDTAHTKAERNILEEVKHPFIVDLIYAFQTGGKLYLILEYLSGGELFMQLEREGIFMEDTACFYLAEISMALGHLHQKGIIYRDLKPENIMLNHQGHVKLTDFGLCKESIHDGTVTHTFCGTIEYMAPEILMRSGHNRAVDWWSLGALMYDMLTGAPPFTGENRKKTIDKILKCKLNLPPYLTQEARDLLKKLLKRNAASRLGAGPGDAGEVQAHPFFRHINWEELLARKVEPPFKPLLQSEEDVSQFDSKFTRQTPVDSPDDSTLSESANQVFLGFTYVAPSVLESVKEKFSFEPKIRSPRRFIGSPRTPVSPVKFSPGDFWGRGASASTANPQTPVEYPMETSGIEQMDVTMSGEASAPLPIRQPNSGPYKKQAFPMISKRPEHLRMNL

TBK1 (human) = TBK1 (human) (UniProt Q9UHD2)
ABL2 (human) = ABL2 (human) (UniProt P42684)
PAK1 (human) = PAK1 (human) (UniProt Q13153)
ULK2 (human) = ULK2 (human) (UniProt Q8IYT8)
MAPKAPK3 (human) = MAPKAPK3 (human) (UniProt Q16644)
VRK1 (human) = VRK1 (human) (UniProt Q99986)
FGFR4 (human) = FGFR4 (human) (UniProt P22455)
AKT2 (human) = AKT2 (human) (UniProt P31751)
RPS6KA1 KD1 KD2 (human) = RPS6KA1 KD1 KD2 (human) (UniProt Q15418)
IKBKB (human) = IKBKB (human) (UniProt O14920)

SMILES: CCn1cnc2c(Nc3cccc(Cl)c3)nc(N[C@@H]3CCCC[C@@H]3N)nc21
- residual activity (PKN1 (human)): 69.9%
- residual activity (DYRK1B (human)): 94.4%
- residual activity (ACVR1 (human)): 92.7%
- residual activity (TGFBR2 (human)): 91.2%
- residual activity (STK3 (human)): 83.9%
- residual activity (INSR (human)): 91.3%
- residual activity (CAMK1 (human)): 103%
- residual activity (LCK (human)): 89.5%
- residual activity (CSK (human)): 85.4%
- residual activity (SRPK1 (human)): 94.2%
- residual activity (PAK2 (human)): 93.9%
- residual activity (DAPK1 (human)): 79.1%
- residual activity (PHKG1 (human)): 62.8%
- residual activity (CDC42BPA (human)): 93.4%
- residual activity (NEK9 (human)): 95.4%
- residual activity (MUSK (human)): 79.8%
- residual activity (NEK6 (human)): 102%
- residual activity (HIPK3 (human)): 102%
- residual activity (RPS6KA2 KD1 KD2 (human)): 45.1%
- residual activity (CDK3 CCNE1 (human)): 49.7%
- residual activity (MAPK11 (human)): 94.1%
- residual activity (KIT (human)): 101%
- residual activity (PRKG2 (human)): 74.3%
- residual activity (CHUK (human)): 91.7%
- residual activity (EPHA8 (human)): 93%
- residual activity (MAP4K5 (human)): 91.1%
- residual activity (TAOK3 (human)): 104%
- residual activity (FLT1 (human)): 92.8%
- residual activity (RET (human)): 69.3%
- residual activity (SRC (human)): 54.7%
- residual activity (MAP3K8 (human)): 93.6%
- residual activity (RPS6KB1 (human)): 97.3%
- residual activity (TBK1 (human)): 92.8%
- residual activity (ABL2 (human)): 65.7%
- residual activity (PAK1 (human)): 88.8%
- residual activity (ULK2 (human)): 94.2%
- residual activity (MAPKAPK3 (human)): 91.3%
- residual activity (VRK1 (human)): 103%
- residual activity (FGFR4 (human)): 97.5%
- residual activity (AKT2 (human)): 108%

SMILES: Nc1nccc(-c2c(-c3ccc(F)cc3)ncn2C2CCNCC2)n1
- residual activity (PKN1 (human)): 96.3%
- residual activity (DYRK1B (human)): 100%
- residual activity (ACVR1 (human)): 86.5%
- residual activity (TGFBR2 (human)): 119%
- residual activity (STK3 (human)): 103%
- residual activity (CAMK1 (human)): 107%
- residual activity (LCK (human)): 80.1%
- residual activity (CSK (human)): 90.8%
- residual activity (SRPK1 (human)): 103%
- residual activity (PAK2 (human)): 76.9%
- residual activity (DAPK1 (human)): 88.2%
- residual activity (RPS6KA1 KD1 KD2 (human)): 96.7%
- residual activity (PHKG1 (human)): 98.3%
- residual activity (CDC42BPA (human)): 101%
- residual activity (NEK9 (human)): 100%
- residual activity (MUSK (human)): 86.9%
- residual activity (NEK6 (human)): 104%
- residual activity (HIPK3 (human)): 97.6%
- residual activity (RPS6KA2 KD1 KD2 (human)): 99.3%
- residual activity (CDK3 CCNE1 (human)): 95.5%
- residual activity (KIT (human)): 98.4%
- residual activity (PRKG2 (human)): 97.2%
- residual activity (CHUK (human)): 101%
- residual activity (EPHA8 (human)): 101%
- residual activity (MAP4K5 (human)): 68.1%
- residual activity (IKBKB (human)): 104%
- residual activity (TAOK3 (human)): 95.3%
- residual activity (FLT1 (human)): 89.3%
- residual activity (RET (human)): 89.4%
- residual activity (SRC (human)): 94.2%
- residual activity (MAP3K8 (human)): 102%
- residual activity (RPS6KB1 (human)): 98.2%
- residual activity (TBK1 (human)): 102%
- residual activity (ABL2 (human)): 95.1%
- residual activity (PAK1 (human)): 97.4%
- residual activity (ULK2 (human)): 113%
- residual activity (MAPKAPK3 (human)): 99.4%
- residual activity (VRK1 (human)): 83.4%
- residual activity (FGFR4 (human)): 85.7%
- residual activity (AKT2 (human)): 94.8%

SMILES: O=C1Cc2c([nH]c3ccc(Br)cc23)-c2ccccc2N1
- residual activity (PKN1 (human)): 101%
- residual activity (ACVR1 (human)): 162%
- residual activity (TGFBR2 (human)): 74.2%
- residual activity (STK3 (human)): 83.2%
- residual activity (INSR (human)): 101%
- residual activity (CAMK1 (human)): 106%
- residual activity (CSK (human)): 88%
- residual activity (SRPK1 (human)): 99.6%
- residual activity (PAK2 (human)): 95.5%
- residual activity (DAPK1 (human)): 101%
- residual activity (RPS6KA1 KD1 KD2 (human)): 90.8%
- residual activity (PHKG1 (human)): 49.7%
- residual activity (CDC42BPA (human)): 99%
- residual activity (NEK9 (human)): 94%
- residual activity (MUSK (human)): 87.6%
- residual activity (NEK6 (human)): 100%
- residual activity (HIPK3 (human)): 109%
- residual activity (RPS6KA2 KD1 KD2 (human)): 94.9%
- residual activity (CDK3 CCNE1 (human)): 81.7%
- residual activity (MAPK11 (human)): 104%
- residual activity (KIT (human)): 90.3%
- residual activity (PRKG2 (human)): 101%
- residual activity (CHUK (human)): 98.6%
- residual activity (EPHA8 (human)): 101%
- residual activity (MAP4K5 (human)): 30.1%
- residual activity (IKBKB (human)): 101%
- residual activity (TAOK3 (human)): 82.8%
- residual activity (FLT1 (human)): 78.9%
- residual activity (RET (human)): 102%
- residual activity (SRC (human)): 71.4%
- residual activity (MAP3K8 (human)): 98.6%
- residual activity (RPS6KB1 (human)): 103%
- residual activity (TBK1 (human)): 93%
- residual activity (ABL2 (human)): 84.9%
- residual activity (PAK1 (human)): 85%
- residual activity (ULK2 (human)): 90.1%
- residual activity (MAPKAPK3 (human)): 100%
- residual activity (VRK1 (human)): 87.3%
- residual activity (FGFR4 (human)): 113%
- residual activity (AKT2 (human)): 104%

SMILES: Nc1nnc2[nH]c3ccccc3nc1-2
- residual activity (PKN1 (human)): 92%
- residual activity (DYRK1B (human)): 96%
- residual activity (ACVR1 (human)): 94.3%
- residual activity (TGFBR2 (human)): 82.4%
- residual activity (STK3 (human)): 88.9%
- residual activity (INSR (human)): 95.3%
- residual activity (CAMK1 (human)): 94.4%
- residual activity (LCK (human)): 93.6%
- residual activity (CSK (human)): 100%
- residual activity (SRPK1 (human)): 101%
- residual activity (PAK2 (human)): 104%
- residual activity (DAPK1 (human)): 91.5%
- residual activity (RPS6KA1 KD1 KD2 (human)): 97.9%
- residual activity (PHKG1 (human)): 86.9%
- residual activity (CDC42BPA (human)): 95.4%
- residual activity (NEK9 (human)): 98.5%
- residual activity (MUSK (human)): 82.6%
- residual activity (NEK6 (human)): 95.5%
- residual activity (HIPK3 (human)): 97.4%
- residual activity (RPS6KA2 KD1 KD2 (human)): 89.1%
- residual activity (CDK3 CCNE1 (human)): 93.1%
- residual activity (MAPK11 (human)): 93.8%
- residual activity (KIT (human)): 100%
- residual activity (PRKG2 (human)): 66.7%
- residual activity (CHUK (human)): 85.9%
- residual activity (EPHA8 (human)): 104%
- residual activity (MAP4K5 (human)): 96.8%
- residual activity (IKBKB (human)): 102%
- residual activity (TAOK3 (human)): 97.1%
- residual activity (FLT1 (human)): 92.1%
- residual activity (RET (human)): 97.1%
- residual activity (MAP3K8 (human)): 81.3%
- residual activity (RPS6KB1 (human)): 99.8%
- residual activity (TBK1 (human)): 92%
- residual activity (ABL2 (human)): 95.5%
- residual activity (PAK1 (human)): 97.1%
- residual activity (ULK2 (human)): 95.9%
- residual activity (MAPKAPK3 (human)): 101%
- residual activity (VRK1 (human)): 103%
- residual activity (FGFR4 (human)): 94.9%
- residual activity (AKT2 (human)): 90.1%

SMILES: COc1ccc(CNC(=O)Nc2ncc([N+](=O)[O-])s2)cc1
- residual activity (PKN1 (human)): 94.3%
- residual activity (DYRK1B (human)): 99.4%
- residual activity (ACVR1 (human)): 99.5%
- residual activity (TGFBR2 (human)): 117%
- residual activity (STK3 (human)): 92.6%
- residual activity (CAMK1 (human)): 101%
- residual activity (LCK (human)): 101%
- residual activity (CSK (human)): 102%
- residual activity (SRPK1 (human)): 92.9%
- residual activity (PAK2 (human)): 102%
- residual activity (DAPK1 (human)): 105%
- residual activity (RPS6KA1 KD1 KD2 (human)): 96.4%
- residual activity (PHKG1 (human)): 101%
- residual activity (CDC42BPA (human)): 93.7%
- residual activity (NEK9 (human)): 89.4%
- residual activity (MUSK (human)): 115%
- residual activity (NEK6 (human)): 100%
- residual activity (HIPK3 (human)): 91.9%
- residual activity (RPS6KA2 KD1 KD2 (human)): 100%
- residual activity (CDK3 CCNE1 (human)): 94.8%
- residual activity (MAPK11 (human)): 95.4%
- residual activity (KIT (human)): 103%
- residual activity (PRKG2 (human)): 100%
- residual activity (CHUK (human)): 97.1%
- residual activity (EPHA8 (human)): 109%
- residual activity (MAP4K5 (human)): 93.9%
- residual activity (IKBKB (human)): 94.9%
- residual activity (TAOK3 (human)): 98.5%
- residual activity (FLT1 (human)): 96.8%
- residual activity (RET (human)): 97.9%
- residual activity (SRC (human)): 101%
- residual activity (MAP3K8 (human)): 96.2%
- residual activity (RPS6KB1 (human)): 85.4%
- residual activity (TBK1 (human)): 104%
- residual activity (ABL2 (human)): 97.9%
- residual activity (PAK1 (human)): 94.2%
- residual activity (ULK2 (human)): 93.4%
- residual activity (MAPKAPK3 (human)): 103%
- residual activity (VRK1 (human)): 95%
- residual activity (FGFR4 (human)): 98.9%
- residual activity (AKT2 (human)): 103%

Reference: the kinase profiling compilation of Christmann-Franck et al. (2016)
